Entries after “also recorded” stand apart in the source; their conditions may differ.

As usually defined, the Km is the substrate concentration at which the rate is half of its maximum. Broadly, the IC50 is the concentration that gives 50% inhibition.

The target in experiment [1] is aptaSAH1&2 SAH split aptamer. Put plainly: Split aptamer (aptaSAH1&2) plate reader-based FRET ligand titration. The format is binding, D. aromatica. The settings on record: for Kd: FRET, aptaSAH1&2 each 50 nM, λex = 485 nm, λem = 600 nm, read-out: apparent KD. From the text:
In our study, we followed the aim of developing a fluorescent split aptamer SAH biosensor (Fig. 1A) from the natural non-split metH RNA aptamer. The concept of fluorescent split aptamers relies on a series of two or more independent fluorescently labeled aptamer oligonucleotides, able to assemble only in the presence of a specific target ligand. In a FRET-based approach, two fragments carry a FRET-pair of communicating fluorescent dyes, such that, upon excitation of the donor dye, the acceptor dye will only emit fluorescence if the dyes are in spatial proximity in the ligand-bound complex, thus indicating the presence of the analyte, i.e., SAH[23]. […] Accordingly, we evaluated two split aptamer fragments labeled with fluorescein (FAM) and tetramethylrhodamin (TAMRA) as a FRET-capable dye pair: aptaSAH1 and aptaSAH2 (Fig. 1B).
(§1) To establish our experimental setup, we mixed both aptamer fragment oligonucleotides at equimolar concentrations (final: 50 nM) and titrated series of SAH resp. SAM dilutions to this prototypical SAH biosensor. […] Furthermore, MST assays require only 10 µL of sample volume per capillary compared to 30 µL per well in a 96-well plate supporting high-throughput applications in material consumption.
MTase reaction mixtures were prepared analogously to the MST-based detection approach but on a 30 µL scale (minimum volume for 96-well half-area plates). Reactions were quenched at a given time by 0.3% SDS and supplemented with 3 µL of the 10× aptamer-containing detection master mix. Reaction mixtures were transferred in technical triplicates to black Greiner 96-well half-area plate and incubated for 1 h at room temperature. Afterward, plates were measured using a Tecan Spark 10 M plate reader equipped with a monochromator setup (λex = 485 nm; λem = 600 nm). Statistical analysis and plotting were performed in GraphPad Prism 7.01.

Experiment [2] has as its target aptaSAH1&2 SAH split aptamer. The experiment is described as follows: Split aptamer (aptaSAH1&2) MST ligand titration. Particulars: for Kd: MST, aptaSAH1&2 each 50 nM. The format is binding, D. aromatica. The protocol:
as §1
To evaluate the effect of inhibitors on DNMT2 activity, we used two known inhibitors, SHO108 and SH112. These SAH derivatives were selected based on their documented efficacy for DNMT2[8],[26].
For MTase assay detection by MST, enzyme reaction mixtures with a total volume of 10 µL per single treatment condition were prepared and incubated for the desired reaction times. Inhibitors were added from corresponding DMSO stocks to a final DMSO concentration of max. 5%. Afterward, reactions were quenched at a given reaction time by the addition of 1 µL sodium dodecyl sulfate (SDS, solution, 3% in water) per 10 µL reaction mixture and mixed well by pipetting. Subsequently, 1 µL of a 10× aptamer-containing detection master mix (200 mM Tris, pH 8.5, 200 mM MgCl2, 3 M NaCl, 10 mM urea, 0.2% Brij, 500 nM aptaSAH1, 500 nM aptaSAH2) was added to the quenched MTase reaction and incubated for 1 h at room temperature. Reaction mixtures were loaded directly to MST capillaries without further purification or sample processing.
MST experiments were carried out in at least technical triplicates using a Monolith NT.115 instrument (NanoTemper Technologies) using Monolith standard capillaries and the blue excitation laser setup. The instrument was calibrated according to the manufacturer’s instructions. General settings were applied for all MST experiments as follows: manual temperature control: 25 °C, fluorescence measurement before MST: 4 s, MST (IR laser) on: 20 s, fluorescence after MST: 2 s, delay: 25 s. The laser power was adjusted to optimize the signal-to-noise ratio and the fluorescence signal. LED and MST power settings were chosen individually for each sample by adjusting the LED power to yield fluorescence signals of at least 300 units (blue laser) or 3000 units (red laser) and the MST power to achieve an appropriate thermophoretic response (standard setting: medium MST power). MST measurements were analyzed using the NT analysis software (version 1.5.41) and exported for statistical analysis and plotting in GraphPad Prism 7.01.

In experiment [3] the target is AptaFluor SAH aptamer. The experiment is described as follows: Commercial AptaFluor SAH assay kit (HTRF) ligand titration. It counts as binding. The settings on record: read-out: affinity KD. The protocol:
To assess the suitability for sensing SAH in a steady-state enzymatic assay, we examined statistical Z-values at 50 nM SAH (which correspond to 5% SAM-to-SAH substrate conversion from 1 µM SAM substrate in a common RNA MTase reaction). By this, we determined an MST-based Z-value of 0.84 (FRET assay: Z = 0.57) highlighting the suitability of this framework for high-throughput screening (HTS) assay setups (Fig. 1E). For these reasons, we prefer the usage of the MST-based assay which the following chapter will focus on, but it is noteworthy that plate reader-based FRET assays were also found equally functional. Furthermore, we performed comparative assays with the commercial AptaFluor assay kit, which gave similar results to our assay in all respects (SI Fig. 2): Z-factor at 50 nM SAH = 0.84; SAH resp.
(§2) Radiometric DNMT2 assays were carried out as described previously. HTRF MTase assays with the commercial AptaFluor SAH assay kit (BellBrook Labs) were performed as described in the manufacturer’s manual in 96-well format.
SI Figure 1 . Displacement of FTAD by literature-known inhibitors in a microscale thermophoresis displacement a s s a y. Data is given as mean ± SD of triplicates. (A) MST traces of SHO108. […]
SI Figure 2. […] (B) D o se -response curves of the AptaFluor assay in the presence of the SAH or SAM ligand by plate reader-ba s e d HT R F ass ays (λex=33 2 nm; λem=620/665 nm). […]
A general note: Time-resolved FRET reads energy transfer from a long-lived donor to a nearby acceptor.

For experiment [4], the system named is metH aptamer. The arrangement: method as in PMID 20864509. Particulars: cited from earlier work.
Experiment [5] deals with T1, METTL3/14 (Homo sapiens, UniProt Q86U44).
T1 construct: purchased BPS Bioscience BPS-100105
Put plainly: METTL3/14 enzymatic split aptamer MST assay. The format is biochemical. The settings on record: 10 nM MTase, 120 nM RNA substrate, variable SAM; read-out: Michaelis-Menten constant KM.
Description: Specifically, we studied the m^6A MTase METTL3/14 and the m^7G MTase S. aureus TrmD.
For MTase assay detection by MST, enzyme reaction mixtures with a total volume of 10 µL per single treatment condition were prepared and incubated for the desired reaction times. Inhibitors were added from corresponding DMSO stocks to a final DMSO concentration of max. […] Afterward, reactions were quenched at a given reaction time by the addition of 1 µL sodium dodecyl sulfate (SDS, solution, 3% in water) per 10 µL reaction mixture and mixed well by pipetting. […]
MST experiments were carried out in at least technical triplicates using a Monolith NT.115 instrument (NanoTemper Technologies) using Monolith standard capillaries and the blue excitation laser setup. […] General settings were applied for all MST experiments as follows: manual temperature control: 25 °C, fluorescence measurement before MST: 4 s, MST (IR laser) on: 20 s, fluorescence after MST: 2 s, delay: 25 s. The laser power was adjusted to optimize the signal-to-noise ratio and the fluorescence signal. LED and MST power settings were chosen individually for each sample by adjusting the LED power to yield fluorescence signals of at least 300 units (blue laser) or 3000 units (red laser) and the MST power to achieve an appropriate thermophoretic response (standard setting: medium MST power). […]

Experiment [6] has as its target T2, DNMT2 (Homo sapiens, UniProt O14717).
T2 construct: made in house
T2 sequence (O14717 1-391): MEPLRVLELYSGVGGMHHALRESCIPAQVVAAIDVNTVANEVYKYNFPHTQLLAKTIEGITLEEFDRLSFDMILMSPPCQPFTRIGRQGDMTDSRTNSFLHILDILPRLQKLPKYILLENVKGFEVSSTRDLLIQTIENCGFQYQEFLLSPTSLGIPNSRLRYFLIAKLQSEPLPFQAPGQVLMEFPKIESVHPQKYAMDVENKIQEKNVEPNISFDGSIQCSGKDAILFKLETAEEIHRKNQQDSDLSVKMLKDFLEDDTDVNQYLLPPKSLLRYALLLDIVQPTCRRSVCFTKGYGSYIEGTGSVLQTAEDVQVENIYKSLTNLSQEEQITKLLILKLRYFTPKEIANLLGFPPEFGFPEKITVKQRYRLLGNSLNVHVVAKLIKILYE
The experiment is described as follows: DNMT2 enzymatic split aptamer MST assay. It counts as biochemical. Particulars: MST-derived; 250 nM DNMT2, 5 µM tRNA, 0.9 µM SAM.
Description: The enzyme kinetics were characterized by calculating the Michaelis-Menten constant (KM or kcat) and inhibitory constants (IC50 resp. KI).
The final drug compound concentration was adjusted to 500 µM for the epigenetic drug library (Fig. 5) resp. 100 µM for the covalent compound library (Fig. 6), and the enzymatic reaction was incubated for 30 min at 25 °C. Subsequently, enzymatic reactions were terminated by the addition of 0.3% SDS, and the product SAH was quantified by the split aptamer MST assay (Figs. 5A, B, 6A).

Experiment [7] addresses T2, DNMT2. Put plainly: DNMT2 radiometric 3H incorporation assay. It counts as biochemical. Particulars: orthogonal 3H-incorporation assay; read-out: IC50. The protocol: (§3) To further validate our findings on DNMT2, we compared the split aptamer inhibition assay results of both inhibitors with those obtained from a previously published orthogonal assay method, the radiometric ^3H incorporation assay[8],[26]. […] Using an additional non-enzymatic MTase assay technique, we also investigated the two DNMT2 inhibitors utilizing an orthogonal MST method based on a fluorescent tracer displacement assay (SI Fig. 1)[27],[28].
as §2

Experiment [8] addresses T2, DNMT2. The experiment is described as follows: Fluorescent tracer displacement assay (FTAD-MST assay). Particulars: MST FTAD tracer displacement; 2 µM DNMT2, 100 nM FTAD; read-out: KD. It counts as binding.
Description: as §3
Fluorescent tracer displacement MST assays for orthogonal ligand evaluation were conducted as described previously. The samples contained 2 µM DNMT2, 100 nM FTAD probe, and 1.3% DMSO in MST buffer (50 mM HEPES, 150 mM NaCl, 1 mM dithiothreitol (DTT), 0.1% PEG-8000, 0.05% polysorbate-20, pH 7.4) supplemented with variable concentrations of the screening compounds. All samples were measured in triplicates in Monolith standard capillaries at 25 °C. The acquisition mode was set to “Nano-Blue” with an excitation power of 30% and a medium MST power. MST measurements were analyzed using the NT analysis software (version 1.5.41) and exported for statistical analysis and plotting in GraphPad Prism 7.01.

The target of experiment [9] is T3, S. aureus TrmD (Staphylococcus aureus, UniProt Q2FZ43).
T3 construct: made in house
T3 sequence (Q2FZ43 1-245): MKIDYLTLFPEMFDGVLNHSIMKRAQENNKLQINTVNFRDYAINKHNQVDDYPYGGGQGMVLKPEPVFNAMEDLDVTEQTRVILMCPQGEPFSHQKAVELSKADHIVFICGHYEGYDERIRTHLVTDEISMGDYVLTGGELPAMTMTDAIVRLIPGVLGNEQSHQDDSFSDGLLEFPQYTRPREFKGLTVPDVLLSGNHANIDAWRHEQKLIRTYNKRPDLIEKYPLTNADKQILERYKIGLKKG
The experiment is described as follows: S. aureus TrmD enzymatic split aptamer MST assay. It counts as biochemical.
Description: DNMT2 & S. aureus TrmD: 100 mM Tris-HCl, pH 8, 100 mM NH4OAc, 0.1 mM EDTA, 10 mM MgCl2, 10 mM DTT. For TrmD: 50 nM TrmD, 2 µM SAM, 1 µM tRNA^Leu.
For MTase assay detection by MST, enzyme reaction mixtures with a total volume of 10 µL per single treatment condition were prepared and incubated for the desired reaction times. Inhibitors were added from corresponding DMSO stocks to a final DMSO concentration of max. 5%. Afterward, reactions were quenched at a given reaction time by the addition of 1 µL sodium dodecyl sulfate (SDS, solution, 3% in water) per 10 µL reaction mixture and mixed well by pipetting. Subsequently, 1 µL of a 10× aptamer-containing detection master mix (200 mM Tris, pH 8.5, 200 mM MgCl2, 3 M NaCl, 10 mM urea, 0.2% Brij, 500 nM aptaSAH1, 500 nM aptaSAH2) was added to the quenched MTase reaction and incubated for 1 h at room temperature. […]
MST experiments were carried out in at least technical triplicates using a Monolith NT.115 instrument (NanoTemper Technologies) using Monolith standard capillaries and the blue excitation laser setup. […] General settings were applied for all MST experiments as follows: manual temperature control: 25 °C, fluorescence measurement before MST: 4 s, MST (IR laser) on: 20 s, fluorescence after MST: 2 s, delay: 25 s. The laser power was adjusted to optimize the signal-to-noise ratio and the fluorescence signal. […]

In experiment [10] the test system is TrmD. The settings on record: read-out: reported IC50; cited from earlier work.

T1 sequence (Q86U44 2-580 limits assumed): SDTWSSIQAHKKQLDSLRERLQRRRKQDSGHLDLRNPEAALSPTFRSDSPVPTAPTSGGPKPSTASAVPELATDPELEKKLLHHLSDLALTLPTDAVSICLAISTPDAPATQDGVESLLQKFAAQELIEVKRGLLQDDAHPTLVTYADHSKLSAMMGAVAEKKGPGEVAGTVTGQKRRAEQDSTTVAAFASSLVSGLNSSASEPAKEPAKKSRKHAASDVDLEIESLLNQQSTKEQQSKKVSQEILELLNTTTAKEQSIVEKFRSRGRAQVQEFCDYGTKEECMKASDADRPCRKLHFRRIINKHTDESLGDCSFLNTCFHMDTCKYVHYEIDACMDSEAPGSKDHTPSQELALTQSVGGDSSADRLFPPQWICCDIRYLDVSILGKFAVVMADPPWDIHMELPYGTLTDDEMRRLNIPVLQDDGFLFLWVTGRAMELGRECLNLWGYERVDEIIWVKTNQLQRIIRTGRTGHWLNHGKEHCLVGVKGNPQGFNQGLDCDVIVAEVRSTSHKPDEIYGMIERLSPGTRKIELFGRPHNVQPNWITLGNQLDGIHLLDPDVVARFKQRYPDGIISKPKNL
T1 sequence (Q9HCE5 2-456 partner limits assumed): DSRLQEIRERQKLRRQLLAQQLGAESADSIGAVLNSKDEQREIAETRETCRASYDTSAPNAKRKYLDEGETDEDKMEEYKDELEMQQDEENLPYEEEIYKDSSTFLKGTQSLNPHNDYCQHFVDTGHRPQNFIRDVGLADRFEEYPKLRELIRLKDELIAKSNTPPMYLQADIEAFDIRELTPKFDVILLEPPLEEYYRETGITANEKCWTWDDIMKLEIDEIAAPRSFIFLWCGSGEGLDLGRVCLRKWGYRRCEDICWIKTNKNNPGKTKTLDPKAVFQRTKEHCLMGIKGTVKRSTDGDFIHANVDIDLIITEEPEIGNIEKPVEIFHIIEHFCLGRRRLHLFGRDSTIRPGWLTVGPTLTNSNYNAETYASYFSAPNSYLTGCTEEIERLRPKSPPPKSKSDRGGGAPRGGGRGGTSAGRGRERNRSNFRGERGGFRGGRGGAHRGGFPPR

As to `Nc1ncnc2c1ncn2[C@@H]1O[C@H](CSCC[C@H](N)C(=O)O)[C@@H](O)[C@H]1O` [SAH, S-adenosylhomocysteine], the Kd in [1] was 0.018 µM; in experiment [2], 0.024 µM; in experiment [3], 0.026 µM; in [4] (isothermal titration calorimetry, read-out: apparent dissociation constant KD), roughly 0.02 µM. In addition, the “SAH over SAM selectivity” value in experiment [1] (from FRET apparent KD values) was found to be 300 fold. Also, in experiment [4], the “selectivity over other nucleosides (including SAM)” value is on record as “at least 100 fold”.

Take `C[S+](CC[C@H](N)C(=O)[O-])C[C@H]1O[C@@H](n2cnc3c(N)ncnc32)[C@H](O)[C@@H]1O` (stereo partly shown) [SAM, S-adenosylmethionine]: the Kd in [1] amounted to 5.3 µM; in experiment [2] it was 2.5 µM; in [3], 5.7 µM. The Km in experiment [5] is 0.106 µM.

As to `C#CCN(CC[C@H](N)C(=O)O)C[C@H]1O[C@@H](n2cnc3c(N)ncnc32)[C@H](O)[C@@H]1O` [SHO108, (S)-2-amino-4-((((2 R,3S,4 R,5 R)-5-(6-amino-9H-purin-9-yl)-3,4-dihydroxytetrahydrofuran-2-yl)methyl)(prop-2-yn-1-yl)amino)butanoic acid], the “binding to split aptamer (MST shift)” value in experiment [2] (inhibitor titrated up to 100 µM without enzyme or RNA substrate, compared to the SAH-positive control) is on record as “not binding to the aptamer at relevant concentrations; also recorded: only minimal MST shifts”. Moreover, the figures for the IC50 in experiment [6] and in experiment [7] were 7.9 ± 1.8 µM and 9.3 ± 1.8 µM, respectively. Also, the Kd in experiment [8] stood at 4.7 µM.

Consider `O=c1nc[nH]c2scc(-c3ccccc3)c12` [phenylthieno-pyrimidinone, 5-phenylthieno[2,3-d]pyrimidin-4(1H)-one], for which the IC50 in [9] is 8.45 µM; in experiment [10], 11 µM.
